Measured values: PubChem BioAssay AID1963437 (Molecular Pharmacology Branch, DTP, NCI, 2024)

Tested on: OVCAR-8 complex spheroid, growth inhibition
Experiment: Anticancer human tumor OVCAR-8 cell line growth inhibition [Asc];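 also: spheroids exposed to agents for 7 days before readout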;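 as to viability, T/C: percent viability relative to DMSO vehicle wells taken as 100%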
Conditions: for IC50: curve of first compound; for viability, T/C: stronger effect = lower value
Method: Multicellular complex tumor spheroid response to apoptosis pathway targeting inhibitors Alrizomadlin, Pelcitoclax, and Dasminapant in combination with a variety of drugs and investigational agents in selected tumor cell lines
The MDM2 inhibitor alrizomadlin, the Bcl-2/Bcl-xL inhibitor pelcitoclax, and the IAPs inhibitor dasminapant were evaluated both individually and in combination with standard of care and investigational anticancer small molecules within a complex spheroid model of solid tumors. . Complex spheroids include a stromal component modeled by human endothelial cells (HUVEC) and fibroblasts modeled by human mesenchymal stem cells (MSCs). The concentration ranges selected for each drug and investigational agent were based upon clinically achievable concentrations if the clinical Cmax of the agent was known.
Compounds. The drugs and investigational agents: alrizomadlin (APG-115; NSC831270), pelcitoclax (APG-1252; NSC835773), dasminapant (APG-1387;NSC834197), TAK-243 (NSC785004), copanlisib (NSC809693), olaparib (NSC753686), talazoparib (NSC767125), cobimetinib (NSC 768068), eltanexor (KPT-8602, NSC 794443), abemaciclib (NSC 768073), sotorasib (NSC818433), adagrasib (NSC 831453), MRTX-1133 (NSC 836407), Iadademestat (ORY1001, NSC 806812), and RMC-4630 (NSC839698), were obtained from the NCI Developmental Therapeutics Program Chemical Repository. The FDA-approved anticancer drug set is available from the Developmental Therapeutics Program at https://dtp.cancer.gov/organization/dscb/obtaining/available plates.htm. […] The stock solutions were prepared in dimethyl sulfoxide (DMSO, Sigma-Aldrich, St. Louis, MO, cat. D2650) at 800-fold the tested concentration and stored at -70 degrees C prior to their use. All drugs and investigational agents were tested over a range starting from a high concentration at or near the clinical Cmax and decreasing in half-log increments. If the clinical Cmax for an agent had not been determined, the highest concentration tested was 10 microM.
The patient-derived cancer (PDC) cell lines include five colon adenocarcinomas: 186277-243-T-J2-PDC, 616215-338-R-J1-PDC, 439559-082-T-J2-PDC, 463943-066-T-J2-PDC, and 519858-162-T-J1-PDC; three pancreatic carcinomas: 323965-272-R-J2-PDC, 521955-158-R6-J3-PDC, and 521955-158-R2-J5-PDC; two uterine sarcomas: 327498-152-R-J2-PDC and 993429-296-R-J1-PDC; two rhabdomyosarcomas: 755483-174-R-J1-PDC and 772245-204-R-J1-PDC; two soft tissue sarcomas: 126254-015-R-J1-PDC and 494315-158-R-J1-PDC; two malignant fibrous histiocytomas: 317291-083-R-J1-PDC and 596521-263-R-J1-PDC; two breast carcinomas: 171881-019-R-J1-PDC and 885512-296-R-J2-PDC; and one ovarian carcinoma: 6556581-035-R-J-PDC were obtained from the NCI PDMR, (https://pdmr.cancer.gov). The established cell lines HSSY-2 synovial sarcoma (RRID:CVCL 8719), SYO-1 synovial sarcoma (RRID:CVCL_7146), MPNST malignant peripheral neural sheath tumor were obtained from the Sloan Kettering Institute. The following established cell lines were purchased from the American Type Culture Collection (ATCC, Manassas, VA), Sor the received from the NCI repository:, PANC-1 pancreatic carcinoma (CRL-1469, RRID:CVCL_0480), OVCAR-5 ovarian carcinoma (RRID:CVCL_1628), OVCAR-8 ovarian carcinoma (RRID:CVCL_1629), , MCF-7 breast carcinoma (CRL-12584, RRID:CVCL_0031), MDA-MB-231 breast carcinoma (CRL-12532, RRID:CVCL_0062), NCI-H1876 small cell lung carcinoma (CRL-5902, RRID:CVCL_1503), NCI-H510A small cell lung carcinoma (HTB-184, RRID:CVCL_1565), NCI-H1417 (CRL-5869, RRID:CVCL_1469), and NCI-H196 small cell lung carcinoma (CRL-5823, RRID:CVCL_1509). Dr. Peter Houghton (Greehey Children's Cancer Research Institute, University of Texas Health Science Center, San Antonio, TX) provided Rh-18 rhabdomyosarcoma (RRID:CVCL_1659). Pooled donor human umbilical vein endothelial cells (HUVEC, Lonza, cat. CC-2519) and human mesenchymal stem cells (hMSC, Lonza, cat. PT-2501) were purchased from Lonza (Walkersville, MD).
Cell Culture. […]

`NC1CCC(NC2CC2c2ccccc2)CC1` (centres undefined) + Cc1c(S(C)(=O)=O)c(-c2cc(F)cc(N3CCN(c4ccc(NS(=O)(=O)c5ccc(NC(CCN6CCC(C(=O)OCCCP(=O)(O)O)CC6)CSc6ccccc6)c(S(=O)(=O)C(F)(F)F)c5)cc4)CC3)c2)c(-c2ccc(Cl)cc2)n1C(C)C was tested. Which IC50 (second compound 0.0316 µM) did it give?
Its IC50 is greater than 0.1 µM.

And the IC50 (second compound 0.1 µM)?
Its IC50 is greater than 0.1 µM.

What about the IC50 (second compound 0.316 µM) of the same compound?
Its IC50 is greater than 0.1 µM.

And the IC50 (second compound 1 µM)?
Its IC50 is greater than 0.1 µM.

What about the IC50 (second compound 3.16 µM) of the same compound?
The IC50 was greater than 0.1 µM.

What about the IC50 (second compound 10 µM) of the same compound?
Its IC50 is greater than 0.1 µM.

What about the viability, T/C (second compound 0.0316 µM, first compound 0.000316 µM) of the same compound?
The viability, T/C was 111%.

What about the viability, T/C (second compound 0.0316 µM, first compound 0.001 µM) of the same compound?
The viability, T/C was 109%.

And the viability, T/C (second compound 0.0316 µM, first compound 0.00316 µM)?
The viability, T/C was 83.2%.

What about the viability, T/C (second compound 0.0316 µM, first compound 0.01 µM) of the same compound?
Its viability, T/C is 101%.

What about the viability, T/C (second compound 0.0316 µM, first compound 0.0316 µM) of the same compound?
Its viability, T/C is 109%.

And the viability, T/C (second compound 0.0316 µM, first compound 0.1 µM)?
The viability, T/C was 80.5%.

And the viability, T/C (second compound 0.1 µM, first compound 0.000316 µM)?
Its viability, T/C is 97.5%.

What about the viability, T/C (second compound 0.1 µM, first compound 0.001 µM) of the same compound?
The viability, T/C was 102%.

What about the viability, T/C (second compound 0.1 µM, first compound 0.00316 µM) of the same compound?
The viability, T/C was 93.4%.

What about the viability, T/C (second compound 0.1 µM, first compound 0.01 µM) of the same compound?
The viability, T/C was 105%.

And the viability, T/C (second compound 0.1 µM, first compound 0.0316 µM)?
The viability, T/C was 120%.

What about the viability, T/C (second compound 0.1 µM, first compound 0.1 µM) of the same compound?
The viability, T/C was 91.8%.

And the viability, T/C (second compound 0.316 µM, first compound 0.000316 µM)?
The viability, T/C was 99.2%.

And the viability, T/C (second compound 0.316 µM, first compound 0.001 µM)?
The viability, T/C was 97.3%.

What about the viability, T/C (second compound 0.316 µM, first compound 0.00316 µM) of the same compound?
The viability, T/C was 111%.

And the viability, T/C (second compound 0.316 µM, first compound 0.01 µM)?
Its viability, T/C is 100%.

What about the viability, T/C (second compound 0.316 µM, first compound 0.0316 µM) of the same compound?
Its viability, T/C is 108%.

And the viability, T/C (second compound 0.316 µM, first compound 0.1 µM)?
The viability, T/C was 106%.

What about the viability, T/C (second compound 1 µM, first compound 0.000316 µM) of the same compound?
The viability, T/C was 118%.

And the viability, T/C (second compound 1 µM, first compound 0.001 µM)?
Its viability, T/C is 114%.

What about the viability, T/C (second compound 1 µM, first compound 0.00316 µM) of the same compound?
The viability, T/C was 103%.

And the viability, T/C (second compound 1 µM, first compound 0.01 µM)?
Its viability, T/C is 107%.

What about the viability, T/C (second compound 1 µM, first compound 0.0316 µM) of the same compound?
The viability, T/C was 132%.

What about the viability, T/C (second compound 1 µM, first compound 0.1 µM) of the same compound?
The viability, T/C was 106%.

What about the viability, T/C (second compound 3.16 µM, first compound 0.000316 µM) of the same compound?
The viability, T/C was 99.3%.

What about the viability, T/C (second compound 3.16 µM, first compound 0.001 µM) of the same compound?
The viability, T/C was 101%.

What about the viability, T/C (second compound 3.16 µM, first compound 0.00316 µM) of the same compound?
The viability, T/C was 119%.

What about the viability, T/C (second compound 3.16 µM, first compound 0.01 µM) of the same compound?
The viability, T/C was 118%.

And the viability, T/C (second compound 3.16 µM, first compound 0.0316 µM)?
Its viability, T/C is 123%.

What about the viability, T/C (second compound 3.16 µM, first compound 0.1 µM) of the same compound?
The viability, T/C was 104%.

What about the viability, T/C (second compound 10 µM, first compound 0.000316 µM) of the same compound?
The viability, T/C was 105%.

And the viability, T/C (second compound 10 µM, first compound 0.001 µM)?
Its viability, T/C is 99.6%.

And the viability, T/C (second compound 10 µM, first compound 0.00316 µM)?
The viability, T/C was 113%.

And the viability, T/C (second compound 10 µM, first compound 0.01 µM)?
Its viability, T/C is 137%.

What about the viability, T/C (second compound 10 µM, first compound 0.0316 µM) of the same compound?
Its viability, T/C is 133%.

What about the viability, T/C (second compound 10 µM, first compound 0.1 µM) of the same compound?
Its viability, T/C is 118%.

Which results are given for `C#Cc1c(F)ccc2cc(O)cc(-c3ncc4c(N5CC6CCC(C5)N6)nc(OCC56CCCN5CC(F)C6)nc4c3F)c12` (centres undefined) + CCN1C(C(=O)NC23CCC(C(=O)O)(CC2)CC3)C(c2cccc(Cl)c2F)C2(C(=O)Nc3cc(Cl)ccc32)C12CCCCC2?
IC50 (second compound 0.00949 µM): > 10 µM; IC50 (second compound 0.03 µM): > 10 µM; IC50 (second compound 0.0949 µM): > 10 µM; IC50 (second compound 0.3 µM): > 10 µM; IC50 (second compound 0.949 µM): > 10 µM; IC50 (second compound 3 µM): > 10 µM; viability, T/C (second compound 0.00949 µM, first compound 0.0316 µM): 91.7%; viability, T/C (second compound 0.00949 µM, first compound 0.1 µM): 86.9%; viability, T/C (second compound 0.00949 µM, first compound 0.316 µM): 93.3%; viability, T/C (second compound 0.00949 µM, first compound 1 µM): 95.2%; viability, T/C (second compound 0.00949 µM, first compound 3.16 µM): 95.5%; viability, T/C (second compound 0.00949 µM, first compound 10 µM): 89.3%; viability, T/C (second compound 0.03 µM, first compound 0.0316 µM): 114%; viability, T/C (second compound 0.03 µM, first compound 0.1 µM): 96.3%; viability, T/C (second compound 0.03 µM, first compound 0.316 µM): 85.1%; viability, T/C (second compound 0.03 µM, first compound 1 µM): 97.3%; viability, T/C (second compound 0.03 µM, first compound 3.16 µM): 90.1%; viability, T/C (second compound 0.03 µM, first compound 10 µM): 91.5%; viability, T/C (second compound 0.0949 µM, first compound 0.0316 µM): 93.2%; viability, T/C (second compound 0.0949 µM, first compound 0.1 µM): 82.2%; viability, T/C (second compound 0.0949 µM, first compound 0.316 µM): 94.4%; viability, T/C (second compound 0.0949 µM, first compound 1 µM): 84%; viability, T/C (second compound 0.0949 µM, first compound 3.16 µM): 101%; viability, T/C (second compound 0.0949 µM, first compound 10 µM): 101%; viability, T/C (second compound 0.3 µM, first compound 0.0316 µM): 79.5%; viability, T/C (second compound 0.3 µM, first compound 0.1 µM): 86.8%; viability, T/C (second compound 0.3 µM, first compound 0.316 µM): 84.2%; viability, T/C (second compound 0.3 µM, first compound 1 µM): 91.7%; viability, T/C (second compound 0.3 µM, first compound 3.16 µM): 96.5%; viability, T/C (second compound 0.3 µM, first compound 10 µM): 98.2%; viability, T/C (second compound 0.949 µM, first compound 0.0316 µM): 93.5%; viability, T/C (second compound 0.949 µM, first compound 0.1 µM): 107%; viability, T/C (second compound 0.949 µM, first compound 0.316 µM): 90.8%; viability, T/C (second compound 0.949 µM, first compound 1 µM): 92.3%; viability, T/C (second compound 0.949 µM, first compound 3.16 µM): 103%; viability, T/C (second compound 0.949 µM, first compound 10 µM): 107%; viability, T/C (second compound 3 µM, first compound 0.0316 µM): 108%; viability, T/C (second compound 3 µM, first compound 0.1 µM): 93%; viability, T/C (second compound 3 µM, first compound 0.316 µM): 105%; viability, T/C (second compound 3 µM, first compound 1 µM): 115%; viability, T/C (second compound 3 µM, first compound 3.16 µM): 110%; viability, T/C (second compound 3 µM, first compound 10 µM): 112%
